Literature values in patent publication US20230000899A1, “ALGINATE, POLYLYSINE, AND SEED PRESERVATIVE NUTRITIONAL PRODUCT AND DIGESTIVE AID” (Reflux Gourmet LLC, priority 2021, published 2023).

Tested on: laboratory mice
Conditions: certain laboratory mice; administered in high concentrations

## Oc1ccc(C=Cc2cc(O)cc(O)c2)cc1 [resveratrol]
  extension of life span: up to 50%
